Values quoted from earlier work in article PMC12304798 (British Journal of Clinical Pharmacology, 2025).
Like-named read-outs stand apart in the source and are kept apart here.

Key:
[1] = test system: NE activity; details: once-daily doses, healthy volunteers
[2] = test system: NE activity
[3] = healthy Japanese and Caucasian volunteers

| skin exfoliation, share of volunteers [3] | SMILES | reduction in NE activity [1] | inhibitory effect on NE activity ([2]; brensocatib 10 mg) | inhibitory effect on NE activity ([2]; brensocatib 25 mg) |
| --- | --- | --- | --- | --- |
| – | CC[C@@H](/C=C/C(=O)N1CCc2ccccc21)NC(=O)C1(N)CCOCC1 [GSK2793660] | approximately 20% | – | – |
| 10% | Cn1c(=O)oc2ccc(-c3ccc(C[C@@H](C#N)NC(=O)[C@@H]4CNCCCO4)cc3)cc21 [brensocatib] | – | 30% | 49% |
